Experimental data taken from patent US10626112B2, “Heterocyclic sulfonamide derivative and medicine comprising same” (EA PHARMA CO., LTD., priority 2014, dated 2020).

target: human TRPA1 (Homo sapiens (Human), UniProt O75762); experiment: Measurement of TRPA1 antagonist activity (1): intracellular calcium increase; type: cell-based; conditions: 293T cells transfected with human TRPA1 expression plasmid; allylisothiocyanate 20 μM stimulation; intracellular calcium fluorescence; read-out: hTRPA1 IC50
In short: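 HEK293T cells transiently transfected with full-length human TRPA1, loaded with Calcium4 dye in HBSS/20 mM HEPES pH 7.2. Test compound preincubated 10 min, then allylisothiocyanate added at 20 μM final and fluorescence change followed for 5 min. IC50 from sigmoid fit of percent inhibition relative to agonist and buffer controls.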

human TRPA1, sequence (O75762 whole entry): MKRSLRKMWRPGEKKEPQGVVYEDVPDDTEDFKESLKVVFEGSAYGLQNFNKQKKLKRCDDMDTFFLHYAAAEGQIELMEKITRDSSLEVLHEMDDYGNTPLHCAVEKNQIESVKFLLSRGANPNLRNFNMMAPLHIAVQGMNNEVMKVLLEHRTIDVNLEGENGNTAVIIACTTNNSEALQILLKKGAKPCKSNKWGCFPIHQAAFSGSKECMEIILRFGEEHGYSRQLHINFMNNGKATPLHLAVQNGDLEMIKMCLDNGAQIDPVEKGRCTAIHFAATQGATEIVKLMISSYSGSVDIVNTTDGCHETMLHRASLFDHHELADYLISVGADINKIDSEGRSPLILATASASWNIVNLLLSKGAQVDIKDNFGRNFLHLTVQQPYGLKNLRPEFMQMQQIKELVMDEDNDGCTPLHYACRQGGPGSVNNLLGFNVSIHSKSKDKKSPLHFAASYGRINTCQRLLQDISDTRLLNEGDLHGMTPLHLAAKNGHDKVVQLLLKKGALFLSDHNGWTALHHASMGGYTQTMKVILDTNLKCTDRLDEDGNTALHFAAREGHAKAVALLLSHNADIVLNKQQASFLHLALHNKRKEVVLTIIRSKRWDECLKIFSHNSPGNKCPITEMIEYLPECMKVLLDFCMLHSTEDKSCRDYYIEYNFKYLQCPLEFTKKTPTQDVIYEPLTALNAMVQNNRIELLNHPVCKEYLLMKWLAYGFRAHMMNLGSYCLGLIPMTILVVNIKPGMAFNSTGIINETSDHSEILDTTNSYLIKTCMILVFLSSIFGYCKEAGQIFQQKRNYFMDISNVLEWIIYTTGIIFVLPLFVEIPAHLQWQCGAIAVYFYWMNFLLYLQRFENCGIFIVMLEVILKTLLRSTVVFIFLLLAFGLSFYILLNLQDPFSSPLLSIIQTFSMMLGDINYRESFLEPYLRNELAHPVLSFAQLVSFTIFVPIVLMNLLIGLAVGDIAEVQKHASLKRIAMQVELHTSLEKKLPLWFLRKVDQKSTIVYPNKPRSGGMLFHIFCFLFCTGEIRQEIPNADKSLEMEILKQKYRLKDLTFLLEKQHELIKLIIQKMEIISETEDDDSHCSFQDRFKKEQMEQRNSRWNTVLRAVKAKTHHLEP

Compound	IC50 [nM]
O=C(NCc1cc(C(F)(F)F)ccc1Cl)[C@@H]1CCCN1S(=O)(=O)c1cc2ccccc2o1 [Example 67, (2S)-1-(benzofuran-2-ylsulfonyl)-N-[[2-chloro-5-(trifluoromethyl)phenyl]methyl]-pyrrolidine-2-carboxamide]	9.7
O=C(NCc1cccc(OCC2CCCOC2)c1)[C@@H]1CCCN1S(=O)(=O)c1cc2cc(F)ccc2o1 (stereo partly drawn) [Example 31, (2S)-1-(5-fluorobenzofuran-2-yl)sulfonyl-N-[[3-(tetrahydropyran-3-ylmethoxy)phenyl]-methyl]pyrrolidine-2-carboxamide]	4.3
(2S)-1-(5-fluorobenzofuran-2-yl)sulfonyl-N-[[3-[2-methyl-5-(trifluoromethyl)pyrazol-3-yl]phenyl]methyl]pyrrolidine-2-carboxamide [Example 164]	7.1
O=C(NCc1ccc(OC(F)(F)F)cc1)[C@@H]1CCCN1S(=O)(=O)c1cc2ccccc2o1 [Example 63, (2S)-1-(benzofuran-2-ylsulfonyl)-N-[[4-(trifluoromethoxy)phenyl]methyl]-pyrrolidine-2-carboxamide]	60
O=C(NCc1ccnc(-c2ccc(C(F)(F)F)cc2)c1)[C@@H]1CCCN1S(=O)(=O)c1cc2cccc(F)c2o1 [Example 219, (2S)-1-(7-fluorobenzofuran-2-yl)sulfonyl-N-[[2-[4-(trifluoromethyl)phenyl]-4-pyridyl]methyl]pyrrolidine-2-carboxamide]	390
O=C(NC1(c2ccnc(-c3ccc(C(F)(F)F)nc3)c2)CC1)[C@@H]1CCCN1S(=O)(=O)c1cc2ccccc2o1 [Example 218, (2S)-1-(benzofuran-2-ylsulfonyl)-N-[1-[2-[6-(trifluoromethyl)-3-pyridyl]-4-pyridyl]cyclopropyl]-pyrrolidine-2-carboxamide]	96
O=C(NCc1cccc(-c2ccc(C(F)(F)F)nc2)c1)[C@@H]1CCN1S(=O)(=O)c1cc2cc(F)ccc2o1 [Example 100, (2S)-1-(5-fluorobenzofuran-2-yl)sulfonyl-N-[[3-[6-(trifluoromethyl)-3-pyridyl]phenyl]methyl]azetidine-2-carboxamide]	1.6
O=C(NCc1ccc(F)c(-c2ccc(C(F)(F)F)cn2)c1)[C@@H]1CCCN1S(=O)(=O)c1cc2ccccc2o1 [Example 309, (2S)-1-(benzofuran-2-ylsulfonyl)-N-[[4-fluoro-3-[5-(trifluoromethyl)-2-pyridyl]phenyl]methyl]pyrrolidine-2-carboxamide]	10
O=C(NCc1cccc(Oc2ccc(C(F)(F)F)nc2)c1)[C@@H]1CCCN1S(=O)(=O)c1cc2ccccc2o1 [Example 54, (2S)-1-(benzofuran-2-ylsulfonyl)-N-[[3-[[6-(trifluoromethyl)-3-pyridyl]oxy]phenyl]methyl]-pyrrolidine-2-carboxamide]	9

Now from value to compound:

IC50 [nM]	Compound
55	O=C(NCc1cccc(C(F)(F)F)c1)[C@@H]1CCCN1S(=O)(=O)c1cc2ccccc2o1 [Example 61, (2S)-1-(benzofuran-2-ylsulfonyl)-N-[[3-(trifluoromethyl)phenyl]methyl]-pyrrolidine-2-carboxamide]
13	O=C(NCc1ccc(O)c(-c2cnc(C(F)(F)F)cn2)c1)[C@@H]1CCCN1S(=O)(=O)c1cc2ccccc2o1 [Example 214, (2S)-1-(benzofuran-2-ylsulfonyl)-N-[[4-hydroxy-3-[5-(trifluoromethyl)-pyrazin-2-yl]phenyl]-methyl]pyrrolidine-2-carboxamide]
14	C[C@H](NS(=O)(=O)c1cc2ccccc2o1)C(=O)NCc1cc(-c2ccc(C(F)(F)F)cc2)ncn1 [Example 104, (2S)-2-(benzofuran-2-ylsulfonylamino)-N-[[6-[4-(trifluoromethyl)phenyl]pyrimidin-4-yl]methyl]propanamide]
4.3	O=C(NCc1cc(-c2ccc(C(F)(F)F)cc2)nc(OCc2ccccc2)n1)[C@@H]1CCCN1S(=O)(=O)c1cc2ccccc2o1 [Example 327, (2S)-1-(benzofuran-2-ylsulfonyl)-N-[[2-benzyloxy-6-[4-(trifluoromethyl)phenyl]pyrimidin-4-yl]methyl]pyrrolidine-2-carboxamide]
